For 17 compounds, ring closure, isolated yield, Ki and ring closure, yield after HPLC results are on record in patent US11136327B2, “Macrocycles as factor XIA inhibitors” (Bristol-Myers Squibb Company, priority 2010, dated 2021).

Like-named read-outs stand apart in the source and are kept apart here.

Data set [1] has as its target purified human Factor XIa (Homo sapiens (Human), UniProt P03951). Briefly: Factor XIa enzyme inhibition assay (chromogenic substrate S-2366). The format is biochemical. Particulars: substrate S-2366, pH 7.4. As for the experimental part: The effectiveness of compounds of the present invention as inhibitors of the coagulation Factors XIa, VIIa, IXa, Xa, XIIa, plasma kallikrein or thrombin, can be determined using a relevant purified serine protease, respectively, and an appropriate synthetic substrate. The rate of hydrolysis of the chromogenic or fluorogenic substrate by the relevant serine protease was measured both in the absence and presence of compounds of the present invention. […] A decrease in the rate of absorbance or fluorescence change in the presence of inhibitor is indicative of enzyme inhibition. Such methods are known to one skilled in the art. The results of this assay are expressed as the inhibitory constant, Ki.
Values of Ki were determined by allowing the protease to react with the substrate in the presence of the inhibitor. Reactions were allowed to go for periods of 20-180 minutes (depending on the protease) and the velocities (rate of absorbance or fluorescence change versus time) were measured. The following relationships were used to calculate Ki values: (vo−vs)/vs=I/(Ki(1+S/Km)) for a competitive inhibitor with one binding site; or vs/vo=A+((B−A)/1+((IC50/(I)n))); and Ki=IC50/(1+S/Km) for a competitive inhibitor where: […]

Assay in data set [2]: not given
The source holds these as a separate data set.

Setting [3] is: from C=CCCCc1ccccc1-c1cn(COCC[Si](C)(C)C)c([C@H](CC=C)NC(=O)OC(C)(C)C)n1, rcm bond, 12-membered ring, Grubbs II (0.4 eq)/pTsOH, DCM, 0.97 mM, 40.0 °C, 1.0 h.
[4] abbreviates: from C=CCCOc1ccccc1-c1cn(COCC[Si](C)(C)C)c([C@H](CC=C)NC(=O)OC(C)(C)C)n1, rcm bond, 12-membered ring, Grubbs II (1 eq)/pTsOH, DCM, 1.02 mM, 40.0 °C, 1.0 h.

purified human Factor XIa, sequence (P03951 388-625): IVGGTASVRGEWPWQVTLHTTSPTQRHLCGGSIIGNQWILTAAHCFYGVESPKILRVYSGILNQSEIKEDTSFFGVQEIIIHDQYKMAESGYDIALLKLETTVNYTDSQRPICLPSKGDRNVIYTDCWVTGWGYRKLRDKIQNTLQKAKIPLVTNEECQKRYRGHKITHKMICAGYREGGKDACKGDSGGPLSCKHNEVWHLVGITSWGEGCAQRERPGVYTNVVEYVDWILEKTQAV
purified human Factor XIa, sequence (P03951 19-387 partner): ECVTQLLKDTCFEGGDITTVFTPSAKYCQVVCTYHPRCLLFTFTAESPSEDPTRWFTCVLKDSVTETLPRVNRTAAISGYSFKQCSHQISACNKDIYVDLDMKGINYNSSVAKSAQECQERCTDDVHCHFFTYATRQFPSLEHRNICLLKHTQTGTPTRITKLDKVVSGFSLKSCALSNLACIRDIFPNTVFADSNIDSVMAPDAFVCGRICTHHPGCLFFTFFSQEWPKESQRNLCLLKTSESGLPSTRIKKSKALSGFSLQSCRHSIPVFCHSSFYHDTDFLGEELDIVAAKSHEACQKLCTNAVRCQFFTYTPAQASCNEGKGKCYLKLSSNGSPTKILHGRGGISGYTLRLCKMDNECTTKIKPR

The compound `COC(=O)Nc1ccc2c(c1)N[C@@H](C(=O)OC)CC=CC[C@H](NC(=O)OC(C)(C)C)c1nc-2cn1COCC[Si](C)(C)C` displayed a ring closure, isolated yield (from C=CC[C@H](NC(=O)OC(C)(C)C)c1nc(-c2ccc(NC(=O)OC)cc2N[C@H](CC=C)C(=O)OC)cn1COCC[Si](C)(C)C, rcm bond, 12-membered ring, Grubbs II (0.4 eq), DCE, 40.0 mM, 120.0 °C, 0.33 h) of 30%.
What is called Ki is the dissociation constant of the complex between target and ligand, obtained from inhibition or displacement. Low values mean tighter binding, high ones weaker binding. For `COC(=O)Nc1ccc2c(c1)NC(=O)CC/C=C/CC(NC(=O)/C=C/c1cc(Cl)ccc1-n1cnnn1)c1cc-2nnc1Cl` (centres unmarked) [Example 89, {(E)-17-Chloro-15-[(E)-3-(5-chloro-2-tetrazol-1-yl-phenyl)-acryloylamino]-9-oxo-8,18,19-triaza-tricyclo[14.3.1.0^2,7]icosa-1(20),2,4,6,12,16,18-heptaen-5-yl}-carbamic Acid Methyl Ester], the Ki in data set [1] worked out at 1060 nM.
For the compound `CC(C)(C)OC(=O)N[C@H]1C/C=C\CCCc2ccccc2-c2cn(COCC[Si](C)(C)C)c1n2`, the ring closure, isolated yield under setting [3] is 17.6%.
Where the note is “from COC(=O)Nc1ccc(-c2cn(COCC[Si](C)(C)C)c([C@H](CN(CCC(=O)O)C(=O)OC(C)(C)C)NC(=O)OCc3ccccc3)n2)c(N)c1, amide bond, 12-membered ring, BOP/DIEA, DCM/DMF, 0.93 mM, 25.0 °C, 5.0 h”, `COC(=O)Nc1ccc2c(c1)NC(=O)CCN(C(=O)OC(C)(C)C)C[C@H](NC(=O)OCc1ccccc1)c1nc-2cn1COCC[Si](C)(C)C` yielded a ring closure, isolated yield of 87%.
`COC(=O)Nc1ccc2c(c1)N[C@@H](C(=O)NCc1ccccn1)CCCC[C@H](NC(=O)/C=C/c1cc(Cl)ccc1-n1cnnn1)c1cc-2ccn1` [II-58] registered a Ki in data set [1] of 21 nM.
Take `CC(C)(C)OC(=O)N[C@H]1C/C=C/CCCc2ccccc2-c2cn(COCC[Si](C)(C)C)c1n2`: the ring closure, isolated yield under setting [3] turned out to be 45.3%.
Compound `CC(C)(C)OC(=O)N[C@H]1C/C=C\CCC(=O)Nc2ccccc2C2=NN=C1O2` (mixture of isomers) displayed a ring closure, yield after HPLC in data set [2] (from C=CCCC(=O)Nc1ccccc1-c1nnc([C@H](CC=C)NC(=O)OC(C)(C)C)o1, rcm bond, 13-membered ring, Grubbs II, DCM, 4.8 mM, 75.0 °C, 1.5 h) of 27%.
As for “(S)-Methyl N-4-(2-(1-(tert-butoxycarbonylamino)but-3-enyl)-1-((2-(trimethylsilyl)ethoxy)methyl)-1H-imidazol-4-yl)-3-(4-methylpent-4-enamido)phenylmethanimidoperoxoate”, for the setting “the molecule shown is the open-chain precursor, rcm bond, 13-membered ring, Grubbs II (0.2 eq), microwave, DCE, 105.0 mM, 120.0 °C”, the ring closure, isolated yield was 34.6%.
For `COC(=O)Nc1ccc2c(c1)NC(=O)CC/C=C/CC(NC(=O)OC(C)(C)C)c1cc-2nnc1Cl` (centres unmarked), the ring closure, isolated yield (from C=CCCC(=O)Nc1cc(NC(=O)OC)ccc1-c1cc(C(CC=C)NC(=O)OC(C)(C)C)c(Cl)nn1, rcm bond, 13-membered ring, Grubbs II, DCM, 6.6 mM, 1.0 h) amounted to 56%.
Take `COC(=O)Nc1ccc2c(c1)NC(=O)CC/C=C/C[C@H](NC(=O)OC(C)(C)C)c1cc-2ccn1`: the ring closure, yield after HPLC in data set [2] (from C=CCCC(=O)Nc1cc(NC(=O)OC)ccc1-c1ccnc([C@H](CC=C)NC(=O)OC(C)(C)C)c1, rcm bond, 13-membered ring, Grubbs II/pTsOH, DCM, 0.99 mM, 40.0 °C, 1.5 h) turned out to be 75%.
Take `COC(=O)Nc1ccc2c(c1)NC(=O)CC/C=C/C[C@H](NC(=O)OC(C)(C)C)C1=NN=C2O1`: the ring closure, isolated yield (from -[5-((S)-1-tert-Butoxycarbonylamino-but-3-enyl)-1,3,4-oxadiazol-2-yl]-3-pent-4-enoylamino-phenyl}-carbamic acid methyl ester, rcm bond, 13-membered ring, Grubbs II (0.36 eq), DCE, 0.61 mM, 75.0 °C) worked out at 19.1%.
Under “from C=CCC(=O)Nc1cc(NC(=O)OC)ccc1-c1cc(C(CC=C)NC(=O)OC(C)(C)C)nc(C)n1, rcm bond, 12-membered ring, Grubbs II (0.4 eq)/HCl, DCM, 0.5 mM, 40.0 °C, 4.0 h”, `COC(=O)Nc1ccc2c(c1)NC(=O)C/C=C/CC(NC(=O)OC(C)(C)C)c1cc-2nc(C)n1` (centres unmarked) gave a ring closure, isolated yield of 22%.
With `COC(=O)Nc1ccc2c(c1)N(C(=O)C(F)(F)F)[C@@H](C(=O)OC)CC=CC[C@H](NC(=O)OC(C)(C)C)c1nc-2cn1COCC[Si](C)(C)C`, under “from C=CC[C@H](NC(=O)OC(C)(C)C)c1nc(-c2ccc(NC(=O)OC)cc2N(C(=O)C(F)(F)F)[C@H](CC=C)C(=O)OC)cn1COCC[Si](C)(C)C, rcm bond, 12-membered ring, Grubbs II (15 mol%), DCE, 37.3 mM, 84.0 °C, 15.0 h”, the ring closure, isolated yield was 37%.
Consider `CC(C)(C)OC(=O)N[C@H]1C/C=C\CCOc2ccccc2-c2cn(COCC[Si](C)(C)C)c1n2`, for which, under setting [4], the ring closure, isolated yield came out at 9%.
Same read-out and setting: under `CC(C)(C)OC(=O)N[C@H]1C/C=C/CCOc2ccccc2-c2cn(COCC[Si](C)(C)C)c1n2` stands 20%.
`COC(=O)Nc1ccc2c(c1)CCCN(C)C(=O)C[C@H](NC(=O)OC(C)(C)C)c1nc-2cn1COCC[Si](C)(C)C` came in with a ring closure, isolated yield (from CNCCCc1cc(NC(=O)OC)ccc1-c1cn(COCC[Si](C)(C)C)c([C@H](CC(=O)O)NC(=O)OC(C)(C)C)n1, amide bond, 12-membered ring, BOP/DIEA/DMAP, DCM/DMF, 8.6 mM, 25.0 °C, 2.0 h) of 39.4%.
In data set [2] (from COC(=O)c1ccc(-c2cc(C(CC(=O)O)NC(=O)OC(C)(C)C)c(Cl)nn2)c(OCCN)c1, amide bond, 12-membered ring, BOP/DIEA/DMAP, DCM/DMF, 1.28 mM, 2.5 h), `COC(=O)c1ccc2c(c1)OCCNC(=O)CC(NC(=O)OC(C)(C)C)c1cc-2nnc1Cl` (centres unmarked) showed a ring closure, yield after HPLC of 15.3%.
